In US20040039014A1, “Methods and compounds for treating depression and other disorders” (NPS Pharmaceuticals, Inc., priority 1998, published 2004):
Read-outs that look alike come from different tables or passages of the source. Marks after values point to notes of the source that are not given here.

Tests used:
NMDA receptor [1] = molecular target: T1, NMDA receptor; test: [3H]MK-801 binding assay (rat cortex synaptic plasma membranes); settings: read-out: [3H]MK-801 data IC50, Table I
T1 construct: rat cortex membranes
Method: Synaptic plasma membranes (SPMs) from rat cortex were prepared as follows. Isolated cerebral cortices from male and female rats were purchased from Pel-Freez (Rogers, Ariz.) in bulk, and stored at −80° C. The cortices from 25 rats were thawed and pooled. […] The resulting homogenates were centrifuged for 10 min at 1,000×g in a T865 rotor, UltraPro80 Sorvall Centrifuge. The supernatant was removed and subsequently centrifuged at 30,000×g for 30 min. […] Membranes were washed by re-suspension in 500 ml of 5 mM K-EDTA (pH 7.0), incubated at 32° C. for 30 min with stirring, and centrifuged at 100,000×g for 30 min. The final pellet was resuspended in 60 ml of […] K-EDTA (pH 7.0) and stored in aliquots at −80° C. The extensive washing procedure utilized in this assay was designed to minimize the concentrations of glutamate and glycine (co-agonists at the NMDA receptor-ionophore complex) present in the membrane preparation.
On the day of assay, aliquots of SPM were thawed and resuspended in 75 vols of 5 mM K-EDTA, pH 7.0. SPM were centrifuged at 100,000×g for 30 min at 4° C.
The SPM pellet was resuspended in assay buffer (30 mM EPPS, 1 mM K-EDTA, pH 7.0) by polytron. […] Binding was started by the addition of the tissue homogenate. The assay was terminated by the addition of 4 ml ice-cold buffer, followed by filtration over glass-fiber filters (Schleicher & Schuell No. 30) on a Millipore 12-well filtration manifold. Filters were washed with another 3 ×4 ml ice-cold buffer (pH 7.0). Radioactivity on the filters was measured using Fisherbrand Scinti-Safe scintillation cocktail. Samples were shaken for 45-60 min on a shaker platform to solubilize the radioactivity. Counting for ^3H was performed in a Beckman 6000IC LS Scintillation Counter for 4 min per sample.

male NMRI-CERJ mice = test: Automated tail-suspension test in mice (Compound 19); type: in vivo, mouse; settings: 16 mg/kg i.p., 30 min prior to testing; p<0.001
Method: In this test, the animal is suspended by the tail for 6 minutes. The behavior of the animal is recorded automatically using a special computerized apparatus which measures two parameters, the duration of immobility and the power of the movements. Ten animals are studied per dose group. […] This test, which is a variant of the behavioral despair test, is based on the assumption that animals faced with an insoluble aversive situation will alternate between phases of activity (searching to escape) and immobility (waiting, “despairs”).

NMDA receptor [2] = tested on: T2, NMDA receptor; test: NMDA receptor assay (fura-2 cytosolic calcium in cultured rat cerebellar granule cells); type: cell-based; settings: Table I, read-out: fura2 data IC50
T2 construct: fura2 data IC50; rat cerebellar granule cells
Method: All culture media, antibiotics, and enzymes, with the exception of fetal calf serum (Hyclone Laboratories, Logan, Utah), were purchased from Sigma Chemical Co., St. Louis, Mo. Fura-2/AM was obtained from Molecular Probes, Eugene, Oreg., and was prepared freshly in dimethylsulfoxide (DMSO) before use. Ionomycin (Calbiochem) was stored as a stock solution in DMSO. Nifedipine (Sigma) and nimodipine (RBI) were dissolved in absolute ethanol. […] All other agents were dissolved in phosphate-buffered saline (PBS), and adjusted to pH 7.4
Preparation of Rat Cerebellar Granule Cell (RCGC) Cultures
Briefly, primary cultures of cerebellar granule neurons were obtained from 8-day-old rats and plated onto squares of Aclar plastic coated with poly-L-lysine. The plastic squares were placed in 12-well culture plates, and ˜7.5×10^5 cells were added to each well. Cultures were maintained in Eagles's medium containing 25 mM KCl, 10% fetal calf serum, 2 mM glutamine, 100 μg/ml gentamicin, 50 U/ml penicillin, and 50 μg/ml streptomycin at 37° C. in a humid atmosphere of 5%CO2 in air for 24 hr before the addition of cytosine arabinoside (10 μM, final). No changes of culture medium were made until the cells were used for fluorescence recording 6-8 days after plating.
Measurement of Cytosolic Calcium
(“Ca^2+-free” buffer contained no added CaCl2 and 30 μM EGTA). The cells were then rinsed with the same buffer, lacking fura-2/AM, and maintained at room temperature until used for measurement of fluorescence, the Aclar squares were transferred into quartz cuvettes containing 2 ml of the HEPES buffer. The cuvette was then placed into a thermostatted holder equipped with a magnetic stirrer in a custom-built spectrofluorimeter (Biomedical Instrumentation Group, University of Pennsylvania, Philadelphia, Pa.). The size of the plastic Aclar square was such as to fit snugly in the cuvette when placed at a diagonal and therefore suspend itself over the spin bar. Fluorescence was measured using excitation and emission wavelengths of 340 and 510 nm, respectively. The amplitude of the evoked increase in fluorescence and subsequent inhibition were recorded and the concentration of [Ca^2+]i was calculated using the formula:
[Ca^2+]=Kd (F-Fmin)/(Fmax-F) (Eq. 1)
F=fluorescence amplitude evoked at a particular time point or concentration of compound;
Fmin=minimum fluorescence determined after the addition of a 2.5 M TRIS/0.3 M EGTA solution;
Fmax=maximum fluorescence determined following the addition of 7 mM ionomycin in DMSO; and […]

[3] = molecular target: T3, serotonin transporter site (Rattus norvegicus, UniProt P31652); test: Serotonin reuptake inhibition assay ([3H]citalopram binding, rat forebrain membranes)
T3 construct: tissue NovaScreen (performed the assay); host or cells: rat forebrain membranes
Method: (§1) Monoamine Transporter Minding Assays
(§2) Monoamine transporter binding assays (reuptake inhibition assays) were performed by NovaScreen using standard radioligand binding assays. The transporter binding assays are described briefly below:
Serotonin Reuptake Inhibition Assay
Rat forebrain membranes were incubated with 0.7 nM [^3H] citalopram, N-methyl, (70-87 Ci/mmol)in 50 mM Tris-HCl (pH 7.4), 120 mM NaCl, and 5 mM KCl at 25° C. for 60 minutes. […] Reactions were terminated by rapid vacuum filtration onto glass fiber filters.

[4] = molecular target: T4, norepinephrine transporter site (Rattus norvegicus, UniProt Q63380); test: Norepinephrine reuptake inhibition assay ([3H]nisoxetine binding, rat forebrain membranes)
T4 construct: tissue NovaScreen (performed the assay); host or cells: rat forebrain membranes
Method: as §1, §2
Norepinephrine Reuptake Inhibition Assay
Reactions were terminated by rapid vacuum filtration onto glass fiber filters.

[5] = molecular target: T5, dopamine transporter site (Cavia porcellus, UniProt H0WCX4); test: Dopamine reuptake inhibition assay ([3H]WIN 35428 binding, guinea pig striatal membranes)
T5 construct: tissue NovaScreen (performed the assay); host or cells: guinea pig striatal membranes
Method: as §1, §2
Dopamine Reuptake Inhibition Assay:
Reactions were terminated by rapid vacuum filtration onto glass fiber filters. Bound radioactivity was determined using liquid scintillation spectrometry and experimental values were compared to control values to determine binding to the dopamine transporter site based on Madras, et al., Molec.

male NIH-Swiss mice = test: Mouse forced-swim test (FST); type: in vivo; settings: 10 mg/kg i.p. single dose 30 minutes prior to testing
Method: (§3) For the mouse and rat forced-swim tests, male pathogen-free NIH-Swiss mice (Harlan Sprague-Dawley) weighing between 22-25 g, and male pathogen-free Sprague-Dawley rats (Harlan Sprague-Dawley) weighing between 320-350 g were used. Animals were removed from the housing room to the testing area in their own cages and allowed to adapt to the new environment for at least 1 hour before testing. Mice were administered either drug (imipramine, 10 mg/kg i.p.; or Compound 60, various p.o or i.p. doses) or saline. Thirty minutes to 24 hours later, mice were placed individually in cylinders (diameter: 10 cm; height: 25 cm) filled with 6 cm of water (22-25° C.) for 6 minutes. The duration of immobility during the last 4 minutes of the 6 minute test was scored. A mouse was recorded as immobile when floating motionless or making only those movements necessary to keep its head above water. Results were expressed as the duration of immobility (seconds).

male Sprague-Dawley rats = test: Rat forced-swim test (FST); type: in vivo; settings: Table VI; 10 mg/kg i.p., 30 minutes prior to testing; saline control 47.9
Method: as §3
The rat forced-swim test was conducted over two days. On treatment Day 1, rats were placed individually in cylinders (diameter: 18 cm; height: 40 cm) filled with water (22-25° C.) to a depth of 15 cm for 15 minutes. The duration of immobility during the first 5 minutes was scored. After testing, the rats were dried with paper towels and placed in holding cages. Five minutes after removal from the testing cylinders, animals received either drug (imipramine, 10 mg/kg i.p.; or Compound 60, various p.o. doses) or saline (p.o.). Ten minutes later, the rats were returned to their home cages. […] The duration of immobility during the first 5 minute period was recorded. A rat was recorded as immobile when floating motionless or making only those movements necessary to keep its head above water. […]

male C57BL/6 mice = test: Mouse tail-suspension test (TST) with Compound 60; type: in vivo
Method: For the mouse tail-suspension test with Compound 60, male pathogen-free C57BL/6 mice (Harlan Sprague-Dawley) weighing between 22-25 g were used. Animals were removed from the housing room to the testing area in their own cages and allowed to adapt to the new environment for at least 1 hour before testing. Mice were administered either drug (imipramine, 15 mg/kg i.p.; or Compound 60, various p.o. doses) or saline. Thirty minutes to 24 hours later, the mice were suspended on the edge of a shelf 80 cm above the floor in the testing room by adhesive tape placed approximately 1 cm from the tip of the tail. The duration of immobility was recorded during a test period of 5 minutes. Mice were considered immobile only when they hung passively and completely motionless. Results were expressed as the duration of immobility (sec).

[6] = Table I, read-out: 5-HT Uptake Ki

T5 sequence (H0WCX4 1-619): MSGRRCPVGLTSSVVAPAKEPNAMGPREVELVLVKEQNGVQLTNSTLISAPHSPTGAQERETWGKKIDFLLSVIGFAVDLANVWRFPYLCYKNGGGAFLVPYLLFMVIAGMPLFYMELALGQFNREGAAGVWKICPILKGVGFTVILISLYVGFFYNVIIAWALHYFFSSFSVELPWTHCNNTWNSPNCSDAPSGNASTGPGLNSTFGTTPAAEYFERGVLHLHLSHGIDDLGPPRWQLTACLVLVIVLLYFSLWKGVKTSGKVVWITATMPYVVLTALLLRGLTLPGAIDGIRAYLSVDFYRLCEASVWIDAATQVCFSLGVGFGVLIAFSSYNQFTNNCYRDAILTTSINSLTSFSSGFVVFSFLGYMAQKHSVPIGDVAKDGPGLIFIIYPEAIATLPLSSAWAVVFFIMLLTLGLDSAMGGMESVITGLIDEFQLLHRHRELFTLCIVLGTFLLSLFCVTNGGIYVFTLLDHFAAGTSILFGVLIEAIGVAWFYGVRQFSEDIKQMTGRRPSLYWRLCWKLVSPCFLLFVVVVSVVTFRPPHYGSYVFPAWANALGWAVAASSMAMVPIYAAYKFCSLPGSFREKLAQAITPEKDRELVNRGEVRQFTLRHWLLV
T3 sequence (P31652 whole entry): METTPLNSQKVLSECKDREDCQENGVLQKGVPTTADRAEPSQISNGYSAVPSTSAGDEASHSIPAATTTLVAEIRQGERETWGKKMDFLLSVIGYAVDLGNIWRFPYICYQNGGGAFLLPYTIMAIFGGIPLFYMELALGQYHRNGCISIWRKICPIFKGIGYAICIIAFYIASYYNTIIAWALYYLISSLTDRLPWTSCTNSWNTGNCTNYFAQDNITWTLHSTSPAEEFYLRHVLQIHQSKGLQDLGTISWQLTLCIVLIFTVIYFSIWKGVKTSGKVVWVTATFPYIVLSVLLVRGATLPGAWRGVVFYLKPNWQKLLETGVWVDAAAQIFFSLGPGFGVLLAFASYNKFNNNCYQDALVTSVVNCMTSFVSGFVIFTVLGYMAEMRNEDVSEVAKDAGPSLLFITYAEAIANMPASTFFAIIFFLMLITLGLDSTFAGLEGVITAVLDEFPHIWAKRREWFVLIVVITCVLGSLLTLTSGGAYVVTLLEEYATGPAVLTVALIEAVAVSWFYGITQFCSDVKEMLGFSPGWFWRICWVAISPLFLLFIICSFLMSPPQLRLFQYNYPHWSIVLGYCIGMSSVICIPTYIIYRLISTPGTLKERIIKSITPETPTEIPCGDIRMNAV
T4 sequence (Q63380 1-617): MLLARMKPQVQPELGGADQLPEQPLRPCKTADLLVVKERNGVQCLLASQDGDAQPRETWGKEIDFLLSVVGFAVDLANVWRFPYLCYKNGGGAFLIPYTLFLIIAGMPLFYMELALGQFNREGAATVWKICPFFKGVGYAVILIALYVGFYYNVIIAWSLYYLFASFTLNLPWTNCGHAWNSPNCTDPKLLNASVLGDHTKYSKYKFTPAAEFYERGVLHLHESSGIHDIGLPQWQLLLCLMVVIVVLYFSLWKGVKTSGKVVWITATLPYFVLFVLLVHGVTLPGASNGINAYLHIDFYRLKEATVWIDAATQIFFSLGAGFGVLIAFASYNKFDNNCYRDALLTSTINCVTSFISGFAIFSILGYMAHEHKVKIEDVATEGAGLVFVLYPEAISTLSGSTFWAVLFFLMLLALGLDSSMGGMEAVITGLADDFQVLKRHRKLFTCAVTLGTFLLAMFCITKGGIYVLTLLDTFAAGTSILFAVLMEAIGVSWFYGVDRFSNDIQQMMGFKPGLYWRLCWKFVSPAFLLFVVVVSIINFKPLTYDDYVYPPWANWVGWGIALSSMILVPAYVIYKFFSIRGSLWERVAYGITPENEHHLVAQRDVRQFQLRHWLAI

| Structure (SMILES) | IC50 (NMDA receptor [1]) [nM] | IC50 (NMDA receptor [2]) [nM] | Ki [3, 6] [nM] | Ki [4] [nM] | Ki [5] [nM] | other results |
| --- | --- | --- | --- | --- | --- | --- |
| NCCC(c1ccccc1)c1ccccc1 [Compound 19] | 2100 | – | – | – | – | increase in the power of movements (male NMRI-CERJ mice): 275% |
| NCCC(c1cccc(F)c1)c1cccc(F)c1 [Compound 20] | 252 | 70 | 256 | 312 | 3000 | – |
| C[C@@H](CN)C(c1cccc(F)c1)c1cccc(F)c1 [Compound 33] | 181 | 60 | 1200 | 3800 | 826 | – |
| C[C@H](CN)C(c1cccc(F)c1)c1cccc(F)c1 [Compound 34] | 2700 | 426 | 2100 | 3000 | 602 | – |
| C[C@H](N)CC(c1cccc(F)c1)c1cccc(F)c1 [Compound 50] | 762 | 89 | 45 | 107 | 1800 | – |
| CNCCC(c1ccccc1)c1ccccc1 [Compound 67] | 2900 | 11000 | – | – | – | – |
| Fc1cccc(C(c2cccc(F)c2)C2CCCNC2)c1 (centres unmarked) [Compound 111] | 167 | 645 | – | 124 | 30 | Ki [3]: 600 nM |
| NCCC(Oc1cccc(F)c1)c1ccccc1 (centres unmarked) [Compound 137] | – | 232 | – | – | – | – |
| CN(C)CCCN1c2ccccc2CCc2ccccc21 [Imipramine, reference compound] | – | – | – | – | – | Mean duration of immobility (male NIH-Swiss mice; Table IV, saline control 129.7): 53.4* sec; Mean duration of immobility (male NIH-Swiss mice; Table V, saline control 137.8): 72.5* sec; Mean Change in the Duration of Immobility (Day 2 minus Day 1) (male Sprague-Dawley rats): −23.3* sec; Mean duration of immobility (male C57BL/6 mice; Table VII, positive control, 15 mg/kg i.p. 30 minutes prior to testing, saline control 154.9): 103.6* sec; Duration of Immobility (male C57BL/6 mice; Table VIII (experiment #1), 15 mg/kg i.p. single dose 30 minutes prior to testing, saline control 210.1): 133.9* sec |
